Test results published in PubChem BioAssay AID1259407 (Chemical Carcinogenesis Research Information System (CCRIS), 2018).
Activity calls are given as the source filed them. How the calls were made is not given here.

System: CCRIS mutagenicity, Ames/micronucleus/aberration tests
Experiment: CCRIS mutagenicity studies
[1] = Test System: AMES SALMONELLA TYPHIMURIUM, Strain/Indicator: TA98, Metabolic Activation: NONE, Method: PREINCUBATION
[2] = Test System: AMES SALMONELLA TYPHIMURIUM, Strain/Indicator: TA98, Metabolic Activation: NONE, Method: STANDARD PLATE
[3] = Test System: AMES SALMONELLA TYPHIMURIUM, Strain/Indicator: TA98, Metabolic Activation: RAT, LIVER, S-9, AROCLOR 1254, Method: STANDARD PLATE
[4] = Test System: AMES SALMONELLA TYPHIMURIUM, Strain/Indicator: TA100, Metabolic Activation: NONE, Method: STANDARD PLATE
[5] = Test System: AMES SALMONELLA TYPHIMURIUM, Strain/Indicator: TA100, Metabolic Activation: RAT, LIVER, S-9, AROCLOR 1254, Method: STANDARD PLATE
[6] = Test System: AMES SALMONELLA TYPHIMURIUM, Strain/Indicator: TA1535, Metabolic Activation: NONE, Method: STANDARD PLATE
[7] = Test System: AMES SALMONELLA TYPHIMURIUM, Strain/Indicator: TA1535, Metabolic Activation: RAT, LIVER, S-9, AROCLOR 1254, Method: STANDARD PLATE
[8] = Test System: AMES SALMONELLA TYPHIMURIUM, Strain/Indicator: TA1537, Metabolic Activation: NONE, Method: STANDARD PLATE
[9] = Test System: AMES SALMONELLA TYPHIMURIUM, Strain/Indicator: TA1537, Metabolic Activation: RAT, LIVER, S-9, AROCLOR 1254, Method: STANDARD PLATE
[10] = Test System: AMES SALMONELLA TYPHIMURIUM, Strain/Indicator: TA1538, Metabolic Activation: NONE, Method: STANDARD PLATE
[11] = Test System: AMES SALMONELLA TYPHIMURIUM, Strain/Indicator: TA1538, Metabolic Activation: RAT, LIVER, S-9, AROCLOR 1254, Method: STANDARD PLATE

| SMILES | mutagenic call [1] | mutagenic call [2] | mutagenic call [3] | mutagenic call [4] | mutagenic call [5] | mutagenic call [6] | mutagenic call [7] | mutagenic call [8] | mutagenic call [9] | mutagenic call [10] | mutagenic call [11] | other results |
| --- | --- | --- | --- | --- | --- | --- | --- | --- | --- | --- | --- | --- |
| COC(F)(F)C(Cl)Cl | inactive; negative |  |  |  |  |  |  |  |  |  |  | mutagenic call (Test System: AMES SALMONELLA TYPHIMURIUM, Strain/Indicator: TA97, Metabolic Activation: HAMSTER, LIVER, S-9, AROCLOR 1254 (10 OR 30%), Method: PREINCUBATION): inactive; negative; mutagenic call (Test System: AMES SALMONELLA TYPHIMURIUM, Strain/Indicator: TA97, Metabolic Activation: NONE, Method: PREINCUBATION): inactive; negative; mutagenic call (Test System: AMES SALMONELLA TYPHIMURIUM, Strain/Indicator: TA97, Metabolic Activation: RAT, LIVER, S-9, AROCLOR 1254 (10 OR 30%), Method: PREINCUBATION): inactive; negative; mutagenic call (Test System: AMES SALMONELLA TYPHIMURIUM, Strain/Indicator: TA98, Metabolic Activation: HAMSTER, LIVER, S-9, AROCLOR 1254 (10 OR 30%), Method: PREINCUBATION): inactive; negative; mutagenic call (Test System: AMES SALMONELLA TYPHIMURIUM, Strain/Indicator: TA98, Metabolic Activation: HAMSTER, LIVER, S-9, AROCLOR 1254 (30%), Method: DESICCATOR): inactive; negative; mutagenic call (Test System: AMES SALMONELLA TYPHIMURIUM, Strain/Indicator: TA98, Metabolic Activation: NONE, Method: DESICCATOR): inactive; negative; mutagenic call (Test System: AMES SALMONELLA TYPHIMURIUM, Strain/Indicator: TA98, Metabolic Activation: RAT, LIVER, S-9, AROCLOR 1254 (10 OR 30%), Method: PREINCUBATION): inactive; negative; mutagenic call (Test System: AMES SALMONELLA TYPHIMURIUM, Strain/Indicator: TA98, Metabolic Activation: RAT, LIVER, S-9, AROCLOR 1254 (30%), Method: DESICCATOR): inactive; negative; mutagenic call (Test System: AMES SALMONELLA TYPHIMURIUM, Strain/Indicator: TA100, Metabolic Activation: HAMSTER, LIVER, S-9, AROCLOR 1254 (10 OR 30%), Method: PREINCUBATION): inactive; negative; mutagenic call (Test System: AMES SALMONELLA TYPHIMURIUM, Strain/Indicator: TA100, Metabolic Activation: HAMSTER, LIVER, S-9, AROCLOR 1254 (30%), Method: DESICCATOR): inactive; negative; mutagenic call (Test System: AMES SALMONELLA TYPHIMURIUM, Strain/Indicator: TA100, Metabolic Activation: NONE, Method: DESICCATOR): inactive; negative; mutagenic call (Test System: AMES SALMONELLA TYPHIMURIUM, Strain/Indicator: TA100, Metabolic Activation: NONE, Method: PREINCUBATION): inactive; negative; mutagenic call (Test System: AMES SALMONELLA TYPHIMURIUM, Strain/Indicator: TA100, Metabolic Activation: RAT, LIVER, S-9, AROCLOR 1254 (10 OR 30%), Method: PREINCUBATION): inactive; negative; mutagenic call (Test System: AMES SALMONELLA TYPHIMURIUM, Strain/Indicator: TA100, Metabolic Activation: RAT, LIVER, S-9, AROCLOR 1254 (30%), Method: DESICCATOR): inactive; negative; mutagenic call (Test System: AMES SALMONELLA TYPHIMURIUM, Strain/Indicator: TA1535, Metabolic Activation: HAMSTER, LIVER, S-9, AROCLOR 1254 (10 OR 30%), Method: PREINCUBATION): inactive; negative; mutagenic call (Test System: AMES SALMONELLA TYPHIMURIUM, Strain/Indicator: TA1535, Metabolic Activation: NONE, Method: PREINCUBATION): inactive; negative; mutagenic call (Test System: AMES SALMONELLA TYPHIMURIUM, Strain/Indicator: TA1535, Metabolic Activation: RAT, LIVER, S-9, AROCLOR 1254 (10 OR 30%), Method: PREINCUBATION): inactive; negative |
| O=S(c1cc(Cl)cc(Cl)c1O)c1cc(Cl)cc(Cl)c1O |  | active; positive | inactive; negative | active; positive | inactive; negative |  |  |  |  |  |  | mutagenic call (Test System: AMES SALMONELLA TYPHIMURIUM, Strain/Indicator: TA97, Metabolic Activation: NONE, Method: STANDARD PLATE): inactive; negative; mutagenic call (Test System: AMES SALMONELLA TYPHIMURIUM, Strain/Indicator: TA97, Metabolic Activation: RAT, LIVER, S-9, AROCLOR 1254, Method: STANDARD PLATE): inactive; negative; mutagenic call (Test System: AMES SALMONELLA TYPHIMURIUM, Strain/Indicator: TA102, Metabolic Activation: NONE, Method: STANDARD PLATE): inactive; negative; mutagenic call (Test System: AMES SALMONELLA TYPHIMURIUM, Strain/Indicator: TA102, Metabolic Activation: RAT, LIVER, S-9, AROCLOR 1254, Method: STANDARD PLATE): inactive; negative |
| O=C(O)c1ccccc1Nc1cc(Cl)ccc1C(=O)O | inactive; negative | inactive; negative | inactive; negative | inactive; negative | inactive; negative | inactive; negative | inactive; negative | inactive; negative | inactive; negative | inactive; negative | inactive; negative | mutagenic call (Test System: AMES SALMONELLA TYPHIMURIUM, Strain/Indicator: TA98, Metabolic Activation: RAT, LIVER, S-9, AROCLOR 1254, Method: PREINCUBATION): inactive; negative |
| CCC(=O)N(c1ccc(Cl)c(Cl)c1)[C@@H]1CCC[C@H]1N(C)C |  | inactive; negative | inactive; negative | inactive; negative | inactive; negative | inactive; negative | inactive; negative | inactive; negative | inactive; negative | inactive; negative | inactive; negative | mutagenic call (Test System: CHINESE HAMSTER OVARY, Strain/Indicator: CHO-K1-BH4 (HGPRT), Metabolic Activation: NONE): inactive; negative; mutagenic call (Test System: CHINESE HAMSTER V-79, Strain/Indicator: V-79/6-THIOGUANINE, Metabolic Activation: NONE): inactive; negative; mutagenic call (Test System: CHINESE HAMSTER V-79, Strain/Indicator: V-79/6-THIOGUANINE, Metabolic Activation: RAT, LIVER, S-9, AROCLOR 1254): inactive; negative; mutagenic call (Test System: UDS RODENT HEPATOCYTES, Strain/Indicator: THY INCORP, Metabolic Activation: NONE): inactive; negative |
